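How tested: cells in 96-well plates exposed to compound for 48 hours at five concentrations. The concentration for full growth arrest is given as TGI.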
How the values were obtained:
Assay in all cases: DTP human tumour cell line panel, 48 h
U251 CNS = tested on: U251 CNS
DMS 273 small cell lung = tested on: DMS 273 small cell lung
DMS 114 small cell lung = tested on: DMS 114 small cell lung
HCC-2998 colon = tested on: HCC-2998 colon
OVCAR-8 ovarian = tested on: OVCAR-8 ovarian
LOX IMVI melanoma = tested on: LOX IMVI melanoma
IGROV1 ovarian = tested on: IGROV1 ovarian
NCI-H23 lung = tested on: NCI-H23 lung
DLD-1 colon = tested on: DLD-1 colon
M14 melanoma = tested on: M14 melanoma
KM12 colon = tested on: KM12 colon
SK-OV-3 ovarian = tested on: SK-OV-3 ovarian
NCI-H460 lung = tested on: NCI-H460 lung
A549 NSCLC = tested on: A549 NSCLC
RPMI-8226 leukemia = tested on: RPMI-8226 leukemia
EKVX NSCLC = tested on: EKVX NSCLC
OVCAR-5 ovarian = tested on: OVCAR-5 ovarian
HCT-15 colon = tested on: HCT-15 colon
UACC-257 melanoma = tested on: UACC-257 melanoma
OVCAR-4 ovarian = tested on: OVCAR-4 ovarian
M19-MEL melanoma = tested on: M19-MEL melanoma
SR leukemia = tested on: SR leukemia
ACHN renal = tested on: ACHN renal
HL-60(TB) leukemia = tested on: HL-60(TB) leukemia
SNB-19 CNS = tested on: SNB-19 CNS
SF-295 CNS = tested on: SF-295 CNS
CCRF-CEM leukemia = tested on: CCRF-CEM leukemia
SK-MEL-2 melanoma = tested on: SK-MEL-2 melanoma
NCI-H522 lung = tested on: NCI-H522 lung
KM20L2 colon = tested on: KM20L2 colon
OVCAR-3 ovarian = tested on: OVCAR-3 ovarian
786-0 renal = tested on: 786-0 renal
HOP-62 NSCLC = tested on: HOP-62 NSCLC
NCI-H226 lung = tested on: NCI-H226 lung
SK-MEL-28 melanoma = tested on: SK-MEL-28 melanoma
SF-268 CNS = tested on: SF-268 CNS
UACC-62 melanoma = tested on: UACC-62 melanoma
K-562 leukemia = tested on: K-562 leukemia
RXF-631 renal = tested on: RXF-631 renal
HT29 colon = tested on: HT29 colon
SN12C renal = tested on: SN12C renal
HCT-116 colon = tested on: HCT-116 colon
COLO 205 colon = tested on: COLO 205 colon
SNB-78 CNS = tested on: SNB-78 CNS
SK-MEL-5 melanoma = tested on: SK-MEL-5 melanoma
SF-539 CNS = tested on: SF-539 CNS
CAKI-1 renal = tested on: CAKI-1 renal
TK-10 renal = tested on: TK-10 renal
RXF 393 renal = tested on: RXF 393 renal
UO-31 renal = tested on: UO-31 renal
SNB-75 CNS = tested on: SNB-75 CNS
A498 renal = tested on: A498 renal
MALME-3M melanoma = tested on: MALME-3M melanoma
MOLT-4 leukemia = tested on: MOLT-4 leukemia
SW-620 colon = tested on: SW-620 colon
LXFL 529 NSCLC = tested on: LXFL 529 NSCLC
HOP-92 NSCLC = tested on: HOP-92 NSCLC
HOP-18 NSCLC = tested on: HOP-18 NSCLC

CC(C)CC(N=Cc1nc(-c2ccccc2)oc1O)C(=O)O (stereo not given)
TGI (U251 CNS): > 100 µM
TGI (DMS 273 small cell lung): > 100 µM
TGI (DMS 114 small cell lung): > 100 µM
TGI (HCC-2998 colon): > 100 µM
TGI (OVCAR-8 ovarian): > 100 µM
TGI (LOX IMVI melanoma): > 100 µM
TGI (IGROV1 ovarian): > 100 µM
TGI (NCI-H23 lung): > 100 µM
TGI (DLD-1 colon): > 100 µM
TGI (M14 melanoma): > 100 µM
TGI (KM12 colon): > 100 µM
TGI (SK-OV-3 ovarian): > 100 µM
TGI (NCI-H460 lung): > 100 µM
TGI (A549 NSCLC): > 100 µM
TGI (RPMI-8226 leukemia): > 100 µM
TGI (EKVX NSCLC): > 100 µM
TGI (OVCAR-5 ovarian): > 100 µM
TGI (HCT-15 colon): > 100 µM
TGI (UACC-257 melanoma): > 100 µM
TGI (OVCAR-4 ovarian): > 100 µM
TGI (M19-MEL melanoma): > 100 µM
TGI (SR leukemia): > 100 µM
TGI (ACHN renal): > 100 µM
TGI (HL-60(TB) leukemia): > 100 µM
TGI (SNB-19 CNS): > 100 µM
TGI (SF-295 CNS): > 100 µM
TGI (CCRF-CEM leukemia): > 100 µM
TGI (SK-MEL-2 melanoma): > 100 µM
TGI (NCI-H522 lung): > 100 µM
TGI (KM20L2 colon): > 100 µM
TGI (OVCAR-3 ovarian): > 100 µM
TGI (786-0 renal): > 100 µM
TGI (HOP-62 NSCLC): > 100 µM
TGI (NCI-H226 lung): > 100 µM
TGI (SK-MEL-28 melanoma): > 100 µM
TGI (SF-268 CNS): > 100 µM
TGI (UACC-62 melanoma): > 100 µM
TGI (K-562 leukemia): > 100 µM
TGI (RXF-631 renal): > 100 µM
TGI (HT29 colon): > 100 µM
TGI (SN12C renal): > 100 µM
TGI (HCT-116 colon): > 100 µM
TGI (COLO 205 colon): > 100 µM
TGI (SNB-78 CNS): > 100 µM
TGI (SK-MEL-5 melanoma): > 100 µM
TGI (SF-539 CNS): > 100 µM
TGI (CAKI-1 renal): > 100 µM
TGI (TK-10 renal): > 100 µM
TGI (RXF 393 renal): > 100 µM
TGI (UO-31 renal): > 100 µM
TGI (SNB-75 CNS): > 100 µM
TGI (A498 renal): > 100 µM
TGI (MALME-3M melanoma): > 100 µM
TGI (MOLT-4 leukemia): > 100 µM
TGI (SW-620 colon): > 100 µM

O=C(C=P(c1ccccc1)(c1ccccc1)c1ccccc1)CC(=S)CC(=O)C=P(c1ccccc1)(c1ccccc1)c1ccccc1
TGI (LXFL 529 NSCLC): 20.1 µM
TGI (U251 CNS): 11.7 µM
TGI (DMS 273 small cell lung): 10.1 µM
TGI (DMS 114 small cell lung): 27 µM
TGI (HCC-2998 colon): 14.7 µM
TGI (OVCAR-8 ovarian): 22.9 µM
TGI (LOX IMVI melanoma): > 100 µM
TGI (IGROV1 ovarian): > 100 µM
TGI (NCI-H23 lung): 16.4 µM
TGI (DLD-1 colon): 17.9 µM
TGI (M14 melanoma): 20.5 µM
TGI (KM12 colon): 18.8 µM
TGI (SK-OV-3 ovarian): > 100 µM
TGI (NCI-H460 lung): 46.7 µM
TGI (A549 NSCLC): > 100 µM
TGI (RPMI-8226 leukemia): > 100 µM
TGI (EKVX NSCLC): > 100 µM
TGI (OVCAR-5 ovarian): 80 µM
TGI (HCT-15 colon): 29.3 µM
TGI (UACC-257 melanoma): 13 µM
TGI (OVCAR-4 ovarian): > 100 µM
TGI (M19-MEL melanoma): > 100 µM
TGI (ACHN renal): 53.6 µM
TGI (SNB-19 CNS): > 100 µM
TGI (SF-295 CNS): 14.5 µM
TGI (CCRF-CEM leukemia): > 100 µM
TGI (NCI-H522 lung): 15.7 µM
TGI (KM20L2 colon): > 100 µM
TGI (OVCAR-3 ovarian): 12.5 µM
TGI (786-0 renal): > 100 µM
TGI (HOP-92 NSCLC): 6.09 µM
TGI (HOP-62 NSCLC): 24.8 µM
TGI (NCI-H226 lung): 24.1 µM
TGI (SK-MEL-28 melanoma): > 100 µM
TGI (SF-268 CNS): > 100 µM
TGI (UACC-62 melanoma): 47.1 µM
TGI (K-562 leukemia): > 100 µM
TGI (RXF-631 renal): > 100 µM
TGI (HT29 colon): > 100 µM
TGI (SN12C renal): 17.9 µM
TGI (HCT-116 colon): > 100 µM
TGI (COLO 205 colon): 3.71 µM
TGI (SK-MEL-5 melanoma): 8.26 µM
TGI (SF-539 CNS): 25 µM
TGI (CAKI-1 renal): > 100 µM
TGI (TK-10 renal): 50.8 µM
TGI (RXF 393 renal): 25.2 µM
TGI (UO-31 renal): 98.9 µM
TGI (A498 renal): 20.6 µM
TGI (MALME-3M melanoma): > 100 µM
TGI (HOP-18 NSCLC): 9.04 µM
TGI (SW-620 colon): > 100 µM

COc1ccc(OC)c2c(C(=O)O)c(C(C)c3ccccc3)ccc12 (stereo not given)
TGI (LXFL 529 NSCLC): > 100 µM
TGI (U251 CNS): > 100 µM
TGI (DMS 273 small cell lung): > 100 µM
TGI (HCC-2998 colon): > 100 µM
TGI (OVCAR-8 ovarian): > 100 µM
TGI (LOX IMVI melanoma): > 100 µM
TGI (IGROV1 ovarian): > 100 µM
TGI (NCI-H23 lung): > 100 µM
TGI (DLD-1 colon): > 100 µM
TGI (M14 melanoma): > 100 µM
TGI (KM12 colon): > 100 µM
TGI (SK-OV-3 ovarian): > 100 µM
TGI (NCI-H460 lung): > 100 µM
TGI (A549 NSCLC): > 100 µM
TGI (EKVX NSCLC): > 100 µM
TGI (OVCAR-5 ovarian): > 100 µM
TGI (HCT-15 colon): > 100 µM
TGI (UACC-257 melanoma): > 100 µM
TGI (OVCAR-4 ovarian): > 100 µM
TGI (M19-MEL melanoma): > 100 µM
TGI (SR leukemia): > 100 µM
TGI (ACHN renal): > 100 µM
TGI (HL-60(TB) leukemia): > 100 µM
TGI (SNB-19 CNS): > 100 µM
TGI (SF-295 CNS): > 100 µM
TGI (CCRF-CEM leukemia): > 100 µM
TGI (SK-MEL-2 melanoma): > 100 µM
TGI (NCI-H522 lung): > 100 µM
TGI (KM20L2 colon): > 100 µM
TGI (OVCAR-3 ovarian): > 100 µM
TGI (786-0 renal): > 100 µM
TGI (HOP-62 NSCLC): > 100 µM
TGI (NCI-H226 lung): > 100 µM
TGI (SK-MEL-28 melanoma): > 100 µM
TGI (SF-268 CNS): > 100 µM
TGI (UACC-62 melanoma): > 100 µM
TGI (K-562 leukemia): > 100 µM
TGI (RXF-631 renal): > 100 µM
TGI (HT29 colon): > 100 µM
TGI (SN12C renal): > 100 µM
TGI (HCT-116 colon): > 100 µM
TGI (COLO 205 colon): > 100 µM
TGI (SK-MEL-5 melanoma): > 100 µM
TGI (CAKI-1 renal): > 100 µM
TGI (TK-10 renal): > 100 µM
TGI (RXF 393 renal): > 100 µM
TGI (UO-31 renal): > 100 µM
TGI (SNB-75 CNS): > 100 µM
TGI (A498 renal): > 100 µM
TGI (MALME-3M melanoma): > 100 µM
TGI (HOP-18 NSCLC): > 100 µM
TGI (MOLT-4 leukemia): > 100 µM
TGI (SW-620 colon): > 100 µM
